From PubChem BioAssay AID651688 (The Scripps Research Institute Molecular Screening Center, 2012)
Activity calls are given as the source filed them. No rule for the calls is given here.

Biological target: 5-hydroxytryptamine receptor 5A (Homo sapiens) (UniProt P47898)
Assay: activation of human HTR5A receptor, late-stage follow-up, counter-screen for OPRM1-OPRD1 heterodimer activator project, cell-based, luminescence, dose response (AID 651688)
Conditions: HTR5A counterscreen cells, luminescence (beta-arrestin/complementation)

Sequence of 5-hydroxytryptamine receptor 5A (Homo sapiens) (P47898 whole entry, looked up): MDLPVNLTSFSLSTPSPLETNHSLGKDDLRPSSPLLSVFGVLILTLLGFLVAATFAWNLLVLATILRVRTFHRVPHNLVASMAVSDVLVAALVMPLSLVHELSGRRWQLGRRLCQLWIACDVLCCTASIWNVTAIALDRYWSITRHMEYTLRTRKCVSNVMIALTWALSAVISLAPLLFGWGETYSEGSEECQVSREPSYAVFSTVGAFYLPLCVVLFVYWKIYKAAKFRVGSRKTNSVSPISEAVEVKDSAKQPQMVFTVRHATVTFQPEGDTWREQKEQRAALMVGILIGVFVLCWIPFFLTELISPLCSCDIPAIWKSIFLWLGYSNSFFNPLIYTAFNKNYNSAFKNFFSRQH

Compound | EC50
CCOC(=O)C1(CCc2ccccc2)CCN(Cc2ccccc2C)CC1 | > 40 µM (inactive)
CCOC(=O)C1(CCOc2ccccc2)CCN(Cc2ccc(O)c(OC)c2)CC1 | > 40 µM (inactive)
CCOC(=O)C1(CCc2ccccc2)CCN(Cc2cc(C)cc(C)c2)CC1 | > 40 µM (inactive)
CCOC(=O)C1(CCc2ccccc2)CCN(Cc2ccc(NC(C)=O)cc2)CC1 | > 40 µM (inactive)
CCOC(=O)C1(Cc2ccccc2)CCN(Cc2cccn2-c2nccs2)CC1 | > 40 µM (inactive)
CCOC(=O)C1(CC2CCCCO2)CCN(Cc2c(C)cc(C)cc2-n2cccn2)CC1 (stereo unspecified) | > 40 µM (inactive)
OCC1(CCc2ccccc2)CCN(Cc2cc(F)ccc2-n2cccn2)CC1 | > 40 µM (inactive)
CCOC(=O)C1(CCOc2ccccc2)CCN(Cc2cccn2-c2cccnc2)CC1 | > 40 µM (inactive)
CCOC(=O)C1(Cc2ccccc2)CCN(Cc2cccn2-c2cccnc2)CC1 | > 40 µM (inactive)
CCOC(=O)C1(CCc2ccccc2)CCN(Cc2ccc(OC(C)C)c(C#N)c2)CC1 | > 40 µM (inactive)
CCOC(=O)C1(CCCc2ccccc2)CCN(Cc2cnn(C)c2)CC1 | > 40 µM (inactive)
